The text below walks through data of patent US8603493B2, “Carbosilane dendrimers, preparation method thereof and use of same” (Dendrico, S.L., priority 2005, dated 2013).

The subject of data set [1] is peripheral blood mononuclear cells (PBMC). Briefly: Mitochondrial activity: MTT on PBMC. The class given is cell-based, human. The conditions noted are these: for Cell viability after incubation with dendrimers according to MTT: 48 hours, relative to untreated control. On the procedure:
(§1) The toxicity of dendrimers IM8, IM16, ClNH4, NN, Phe and the commercial controls SF (Superfect) and G4 were tested. Different quantities were taken of each one of them so that the final concentrations with which the cells were incubated were 1 μM, 5 μM, 10 μM, 20 μM and 100 μM.
(§2) The blood came from adult donors or the umbilical cord of health newborns. Said blood was diluted ½ with PBS and it was centrifuged in a Ficoll gradient. After said centrifugation, the PBMC halo was recovered and two subsequent washing-centrifuging cycles were carried out. The resulting PBMC were resuspended in complete culture medium with 10% FCS, antibiotics and glutamine.
(§3) 100 μl of 10% complete medium of foetal calf serum, antibiotics and glutamine were added to a volume of 60 μl of RPMI with the corresponding dendrimer tested. 160 μl were then added to the cells seeded in 340 μl, completing a final volume of 500 μl. The cells were incubated in this way for 48 hours and then the effect of the incubation with the dendrimers was evaluated by its visual examination and by the evaluation of the mitochondrial activity.
A curve of mitochondrial activity was performed of the dendrimer concentration after 48 hours. […] It is a […] test based on the selective capacity of the cells viable for reducing 3-(4,5-dimethylthiazol-2-il)-2,5-diphenyl tetrazolium bromide in insoluble formazan crystals. After 48 hours of incubation of the PBMC with different concentrations of dendrimers in a 96-well plate (100,000/well), the supernatant which contained dendrimer was removed and it was replaced by 200 μl of a culture medium without serum or red phenol (Optimem). To avoid the loss of cells in this step and subsequently of formazan, a modification had been made of the protocol, seeding the PBMC in total human plasma fibronectin (Sigma®) at a concentration of 5-10 μg/ml, so that during the 4-hour incubation they fixed to the bottom of the well. In addition to the 200 μl of Optimem, 20 μl of filtered MTT were added to achieve its sterility (Thiazolyl Blue, Sigma®) in PBS pH 7.4 at a concentration of 5 mg/ml to achieve a final concentration per well of 0.5 mg MTT/ml. After 4 hours of incubation at 37° C. with 5% CO2 atmosphere, the plate was centrifuged at 2000 rpm and the supernatant with the excess MTT that had not reacted was subsequently removed. The formazan crystals were observed under a phase contrast microscope and later dissolved with 200 μl of dimethyl sulfoxide (DMSO). The plate was stirred at 700 rpm in an Eppendorf® stirrer-heater to ensure the correct dissolution of said crystals. The concentration of formazan ([A]) was determined by spectrometry using a plate reader at a wavelength of 570 nm with a reference of 690 nm. The spectrophotometry was calibrated to zero using Optimem without cells. The relative cell viability (%) with respect to the control (untreated cells), based on mitochondrial activity, was calculated based on this formula: [A] test/[A] control×100. Each dendrimer concentration was tested in triplicate, following the guidelines of the ATCC.

For data set [2] the test system is unchanged. As to the kind of experiment: Visual examination of PBMC incubated with dendrimers. The class given is cell-based, human. The conditions noted are these: for visual examination of PBMC: 48 hours. On the procedure: as §1, §2, §3
The subject of data set [3] is PBMC. Briefly: Staining with Trypan Blue of PBMC treated with dendriplexes or dendrimers. Particulars: 72 hours, (+/−)=2/1, IM8 3.93 μM, IM16 1.99 μM, ClNH4 3.98 μM, Phe 1.96 μM, NN 3.94 μM, SF 0.68 μM, G4 100 μM, PPT 0.88 μM (0.34 μM with SF, 1 μM with G4), n = 100 cells per count.
A further data set deals with ODN PPT. As to the kind of experiment: Stability of the dendriplexes in aqueous solution in accordance with time. The data set is classed as physicochemical. The conditions noted are these: after 24 hours. On the procedure:
Different samples of dendriplexes were prepared in aqueous solution formed between the ODN PPT and dendrimers IM8, IM16 and NN at a 2/1 charge ratio according to Example 31 and electrophoresis was performed after different times since the preparation of the samples, specifically 0 hours, 6 hours and 24 hours. During those times, the dendriplexes were maintained in conditions which imitate the physiological conditions: 37° C., in 5% CO2 atmosphere. The results are shown in FIG. 5, wherein the gel of FIG. 5a corresponds to the sample of 0 hours, that of FIG. 5b to the samples after 6 hours and that of FIG. 5c to the samples after 24 hours. In the three cases, a, b and c, the samples appear in the lanes following this order: […]

In data set [4] the test system is PBMC. As to the kind of experiment: Lymphoproliferative test (tritiated thymidine). The class given is cell-based, human. The conditions noted are these: 5 days, average of triplicate. As for the experimental part:
To evaluate the antigenic capacity of CBS dendrimers, a lymphoproliferative test was performed. The experiment was prepared in triplicate in a 96-well flat bottomed plate (100,000 cells per well in 200 μl of complete human AB medium with antibiotics, glutamine and 10% AB serum). […] After 5 days of incubation at 37° C. with 5% atmosphere of CO2 100 μl of supernatant was removed, then adding 100 μL of a medium with an isotopic intercalating agent of DNA, tritiated thymidine (prepared with 10% AB medium and Thymidine 1/100). The plate was then filtered using a Harvester passing its content through a filter, which was left to dry overnight (approx. 16 hours). After this period, a sheet of Methylex® containing scintillation medium was heat-melted, and it was read in a gamma camera to evaluate the number of counts (greater the counts, more proliferation). The results, which are shown below in Table 8, are expressed as tritiated thymidine counts per minute (cpm). Each result of each concentration was performed in triplicate, the value which appears in the table being the average of the 3. The PHA and the control were tested 12 times.

A further data set has as its system erythrocytes. As to the kind of experiment: Visual examination of erythrocytes (hemagglutination). The data set is classed as cell-based, human. As for the experimental part:
A visual examination was carried out to detect the presence/absence of hemagglutination and quantification of haemoglobin release (haemolysis test) by spectrophotometry. ClNH4 was excluded from the dendrimers of previous Example 38, as the result had been more toxic for lymphocytes, and the results were compared with those produced for a PAMAN type generation 4 dendrimer.
The erythrocytes were obtained after being separated from the PBMC using the same Ficoll gradient cited in the previous Example. They were diluted in PBS to be able to view them individually. The cells were resuspended in 500 μl of PBS and were seeded in a 24-well plate (300,000/well). As positive control, cells treated with 0.2% Triton X-100 were used. Negative control: PBS (blank). The erythrocytes were incubated with different dendrimer concentrations. The presence of hemagglutination, number of cells and release of haemoglobin by hour were evaluated by collecting 100 μl of supernatant and measuring absorbencies by spectrophotometry using a plate reader at a wavelength of 550 nm and 690 nm as reference.

The structures appear in SMILES notation.

For `C[Si](C)(CCCN)CCC[Si](C)(CCC[Si](C)(C)CCCN)CCC[Si](CCC[Si](C)(CCC[Si](C)(C)CCCN)CCC[Si](C)(C)CCCN)(CCC[Si](C)(CCC[Si](C)(C)CCCN)CCC[Si](C)(C)CCCN)CCC[Si](C)(CCC[Si](C)(C)CCCN)CCC[Si](C)(C)CCCN.Cl.Cl.Cl.Cl.Cl.Cl.Cl.Cl` [ClNH4, 2G-[Si(CH2)3NH3^+Cl^−]8], the “Cell viability after incubation with dendrimers according to MTT” value (from here on “Cell viability after incubation”) in data set [1] (1 μM) was determined as 65.5%; in data set [1] (5 μM), 47%; in data set [1] (10 μM), 40%; in data set [1] (20 μM) it was 16%; in data set [1] (100 μM), 14%. The figures for the “visual examination of PBMC” value in data set [2] (1 μM) and in data set [2] (5 μM) were “O.K” and “Aggregates +”, respectively. Moreover, the “TB+ (%), cells stained with Trypan Blue” value in the data set on PBMC [3] is 15.7%.

On to `C[N+](C)(C)CCO[Si](C)(C)CCC[Si](C)(CCC[Si](CCC[Si](C)(CCC[Si](C)(C)OCC[N+](C)(C)C)CCC[Si](C)(C)OCC[N+](C)(C)C)(CCC[Si](C)(CCC[Si](C)(C)OCC[N+](C)(C)C)CCC[Si](C)(C)OCC[N+](C)(C)C)CCC[Si](C)(CCC[Si](C)(C)OCC[N+](C)(C)C)CCC[Si](C)(C)OCC[N+](C)(C)C)CCC[Si](C)(C)OCC[N+](C)(C)C.[I-].[I-].[I-].[I-].[I-].[I-].[I-].[I-]` [IM8, 2G-[Si(OCH2CH2NMe3^+I^−)]8], for which the “Cell viability after incubation” value in data set [1] (1 μM) amounted to 98%; in data set [1] (5 μM), 60%; in data set [1] (10 μM) it was 18%; in data set [1] (20 μM) it was 12%; in data set [1] (100 μM) it was 10%. Besides, the “visual examination of PBMC” value in data set [2] (1 μM) and in data set [2] (5 μM) was “O.K” each time. Also, the “ODN released from dendrimer” value with ODN PPT is on record as approximately 100%. The “Measurement of the scintillation counter (tritiated thymidine counts)” value turned out to be 144 cpm with PBMC [4] (2 μM) and 149 cpm in the data set with PBMC [4] (5 μM). In the data set with erythrocytes, the “order of hemagglutination from greater to lesser” value is given as “G4>Phe>IM16>IM8>NN”. For the same compound, the “Visual examination of erythrocytes incubated with dendrimers” value in the data set with erythrocytes (1 μM) is “O.K”; in the data set with erythrocytes (5 μM), “Ag+”; in the data set on erythrocytes (10 μM), “Ag+”; in the data set with erythrocytes (20 μM), “No cells”. The “TB+ (%), cells stained with Trypan Blue” value with PBMC [3] is recorded as 17.1%.

Turning to `C[N+](C)(C)CCOc1cc(CO[Si](C)(C)CCC[Si](C)(CCC[Si](CCC[Si](C)(CCC[Si](C)(C)OCc2cc(OCC[N+](C)(C)C)cc(OCC[N+](C)(C)C)c2)CCC[Si](C)(C)OCc2cc(OCC[N+](C)(C)C)cc(OCC[N+](C)(C)C)c2)(CCC[Si](C)(CCC[Si](C)(C)OCc2cc(OCC[N+](C)(C)C)cc(OCC[N+](C)(C)C)c2)CCC[Si](C)(C)OCc2cc(OCC[N+](C)(C)C)cc(OCC[N+](C)(C)C)c2)CCC[Si](C)(CCC[Si](C)(C)OCc2cc(OCC[N+](C)(C)C)cc(OCC[N+](C)(C)C)c2)CCC[Si](C)(C)OCc2cc(OCC[N+](C)(C)C)cc(OCC[N+](C)(C)C)c2)CCC[Si](C)(C)OCc2cc(OCC[N+](C)(C)C)cc(OCC[N+](C)(C)C)c2)cc(OCC[N+](C)(C)C)c1.[I-].[I-].[I-].[I-].[I-].[I-].[I-].[I-].[I-].[I-].[I-].[I-].[I-].[I-].[I-].[I-]` [Phe, 2G-[Si(OCH2—(C6H3)-3,5-(OCH2CH2NMe3^+I^−)2)]8], the “Cell viability after incubation” value in data set [1] (1 μM) amounted to 83%; in data set [1] (5 μM), 77%; in data set [1] (10 μM), 71%; in data set [1] (20 μM) it was 54%; in data set [1] (100 μM) it was 14%. Further, the “mitochondrial viability (comparison among dendrimers)” value in data set [1] (increasing concentrations of CBS or SF) is given as “greater mitochondrial viability”. For the same compound, the “toxicity for the lymphocytes from the visual observation (comparison)” value in data set [2] was “least toxic”. For the same compound, the “visual examination of PBMC” value in data set [2] (1 μM) is recorded as “O.K”; in data set [2] (5 μM), “O.K”; in data set [2] (10 μM), “O.K”; in data set [2] (20 μM), “Few cells”; in data set [2] (100 μM), “Isolated cells”. Also, the “Measurement of the scintillation counter (tritiated thymidine counts)” value turned out to be 146 cpm with PBMC [4] (2 μM) and 170 cpm with PBMC [4] (5 μM). Moreover, the “induction of hemagglutination / haemolysis” value in the data set with erythrocytes was “induces hemagglutination”. Moreover, the “order of hemagglutination from greater to lesser” value with erythrocytes was “G4>Phe>IM16>IM8>NN”. The entries for the “Visual examination of erythrocytes incubated with dendrimers” value in the data set with erythrocytes (1 μM), in the data set with erythrocytes (5 μM) and in the data set on erythrocytes (10 μM) were “Ag+”, “Ag+++” and “Ag+++”, respectively. Further, in the data set on PBMC [3], the “TB+ (%), cells stained with Trypan Blue” value came to 11.3%.
